Measured values reported in PMC9085577, “Discovery of a Potent and Orally Active Dual GPBAR1/CysLT1R Modulator for the Treatment of Metabolic Fatty Liver Disease” (Frontiers in Pharmacology, 2022).
Values joined by “and” are separate entries in the source; they are usually repeats but may differ in a detail not shown here. Equal entries are not always repeated.

Legend:
[1] = Metabolic stability in liver S9 fraction; assay type: in vitro ADME
Experimental: (§1) Metabolic Stability. All compounds were tested at the final concentration of 1 µM in a 50 mM potassium phosphate buffer (pH 7.4) containing 1% DMSO as vehicle. For microsomes assay, the incubation mixtures contained 0.15 mg of Human liver microsomes (Sigma-Aldrich, St. Louis, MO, United States), 5 mM MgCl2, 1 mM NADPH, 5 mM glucose 6-phosphate, 0.4 U mL^−1 glucose 6-phosphate dehydrogenase. For S9 fraction analysis, the buffer contained 0.15 mg of S9 proteins (Sigma-Aldrich, St. Louis, MO, United States), 0.3 mM NADPH, 5.6 mM glucose-6-phosphate, 0.6 units/mL glucose-6-phosphate dehydrogenase, 5.8 mM UDP-glucuronic acid, 0.05 mM acetyl-CoA, 0.5 mM dithiothreitol, 0.5 mM 3′-phosphoadenosine 5′-phosphosulfate, 1 mM glutathione, 0.2 mM acetyl carnitine, 4 units/mL carnitine acetyl transferase, 0.5 mM glycine, and 0.5 mM taurine.
Samples were kept at 37°C and aliquots were removed at 0, 5, 15, 30, 45, 60, 90, 120, 150 min after protein additions. The reaction was stopped by adding 200 µL of ice-cold acetonitrile to withdrawn aliquots. After 2 h, samples were centrifuged for 10 min at 10,000 rpm, and supernatants were subjected to LC-MS/MS analysis. […]
In vitro intrinsic clearance (Clint expressed as µL/min/mg) was calculated according to the following formula: Clint = Vx 0.693/t1/2 were V = volume of reaction (µL)/protein in the incubation (mg). […]

[2] = In vivo stability: amount of compound 2 in plasma of mice; conditions: 30 mg/kg
Experimental: The amount of compound 2 in plasma samples of animals treated with compound 2 was evaluated measuring the peak area of the compound at 1, 6, and 24 h after administration. 50 μL of plasma samples were mixed with 200 μL of acetonitrile, vortexed and incubated for 1 h on ice. Samples were then centrifuged for 10 min at 10,000 rpm and supernatants were evaporated to dryness. For LC/MS-MS analysis a QTRAP 6500 System (AB Sciex) equipped with Shimadzu LC-20A LC and AutoSampler was employed. […] The transition 356 →143 was employed for quantification. The following parameters were set: positive mode, DP 120 eV, EP 12 eV, CE 40 eV, CXP 23 V, CUR 30 psi, CAD Medium, IS 5500 V, TEM 350°C, GS1 and GS2 50 psi.
Given the promising results obtained during in vitro pharmacokinetics studies, the profile of disappearance of compound 2 was also evaluated in vivo. Mice were treated with compound 2 and plasma samples withdrawn 1, 6, and 24 h after administration were analyzed by LC-MSMS to evaluate the concentration of compound 2.

[3] = molecular target: T1, Human CysLT1 (LTD4) (Homo sapiens, UniProt Q9Y271); assay: Human CysLT1 (LTD4) antagonist effect cellular functional assay (Ca2+ fluorescence, Eurofins Cerep-Panlabs); assay type: cell-based; conditions: antagonist effect, 0.1 nM LTD4; read-out: CysLT1R IC50
T1 construct: Eurofins Cerep-Panlabs (France), contract assay
T1 sequence (Q9Y271 1-337): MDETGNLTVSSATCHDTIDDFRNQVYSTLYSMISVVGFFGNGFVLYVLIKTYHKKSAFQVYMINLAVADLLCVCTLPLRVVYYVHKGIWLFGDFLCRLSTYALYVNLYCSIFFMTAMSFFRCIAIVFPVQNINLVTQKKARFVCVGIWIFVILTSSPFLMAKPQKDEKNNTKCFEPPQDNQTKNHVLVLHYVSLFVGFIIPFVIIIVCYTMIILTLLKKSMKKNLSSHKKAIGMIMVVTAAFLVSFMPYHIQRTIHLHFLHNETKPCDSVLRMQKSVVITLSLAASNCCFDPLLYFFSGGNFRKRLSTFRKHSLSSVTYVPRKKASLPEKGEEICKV
Experimental: Human CysLT1 (LTD4) (h) (antagonist effect) Cellular Functional Assay. These assays were performed at Eurofins Cerep-Panlabs (France). The cells were suspended in DMEM buffer (Invitrogen) and then distributed in microplates at a density of 3.104 cells/well. […] Thereafter, the assay plates are positioned in a microplate reader (CellLux, PerkinElmer), which was used for the addition of the test compound or HBSS buffer, then 5 min later, 0.1 nM LTD4 or HBSS buffer (basal control), and measured the changes in fluorescence intensity, which varies proportionally to the free cytosolic Ca^2+-ion concentration.

[4] = LogD octanol/PBS pH 7.4; assay type: physicochemical
Experimental: LogD. Measurements 40 µL of selected compounds were dissolved in 1960 µL of PBS pH 7.4/Octanol. Samples were shacked for 2 h at rt, 10 µL of each phase were withdrawn, diluted in 490 µL of MeOH, and analyzed by LC-MSMS. The ratio of mass signal area obtained in octanol and PBS at pH 7.4 and in organic solvent was employed to calculate LogD.

[5] = Metabolic stability in human liver microsomes; assay type: in vitro ADME
Experimental: as §1
Samples were kept at 37°C and aliquots were removed at 0, 5, 15, 30, 45, 60, 90, 120, 150 min after protein additions. The reaction was stopped by adding 200 µL of ice-cold acetonitrile to withdrawn aliquots. After 2 h, samples were centrifuged for 10 min at 10,000 rpm, and supernatants were subjected to LC-MS/MS analysis.
The slope of the linear regression of the curve obtained reporting the natural logarithm of compound area versus incubation time (−k) was used in the conversion to in vitro t1/2 values by t1/2 = […].
In vitro intrinsic clearance (Clint expressed as µL/min/mg) was calculated according to the following formula: Clint = Vx 0.693/t1/2 were V = volume of reaction (µL)/protein in the incubation (mg). Testosterone was used as a positive control for microsome and phase I enzymes, and 7-hydroxycoumarin was used as positive control for phase II enzymes.

microsomal CLint at 1 µM ([1]; pH 7.4): 6 µL/min/mg
half-life at 1 µM ([1]; pH 7.4, read-out: S9 fraction t1/2): 385 min
compound remaining in plasma ([2]; 24 h after administration): approximately 20%
IC50 [3]: 5.6 µM and 5.67 µM
LogD [4]: proper
logD at 2 h ([4]; octanol/PBS): 2
stability to Phase I enzymes contained in microsomal fraction [5]: highly stable
microsomal CLint at 1 µM ([5]; pH 7.4, human liver microsomes, 1 µM): 4 µL/min/mg
half-life at 1 µM ([5]; pH 7.4, human liver microsomes, 1 µM, read-out: Microsomes t1/2): 578 min
Compound: O=C(O)c1cccc(-c2ccc(OCc3ccc4ccccc4n3)cc2)c1 [Compound 2, 4'-(quinolin-2-ylmethoxy)-[1,1′-biphenyl]-3-carboxylic acid]
compound remaining in plasma ([2]; 6 h after administration): considerable percentage of compound 2 is still present
